According to patent publication US20110251379A1, “COMPOUNDS USEFUL FOR TREATING NEURODEGENERATIVE DISORDERS” (Satori Pharmaceuticals, Inc., priority 2010, published 2011):
Read-outs that look alike come from different tables or passages of the source.

How the values were obtained:
Assay type in all cases: cell-based
[1] = system: Aβ-38; experiment: MSD Human (6E10) Ab 3-PLEX elisa, conditioned media of 2B7 cells: Aβ-38; conditions: for IC50: Aβ-38 (superscript a)
In short: (§1)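 Read-out is MSD electrochemiluminescence of secreted Aβ peptides in 2B7 conditioned media after 5 hours of compound exposure at 37° C in 1% DMSO. Concentrations come from seven-point standard curves, and IC50 values from 4-parameter fits of percent vehicle.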

[2] = system: Aβ-40; experiment: MSD Human (6E10) Ab 3-PLEX elisa, conditioned media of 2B7 cells: Aβ-40; conditions: for IC50: Aβ-40 (superscript b); for inhibition at 20 µM: Aβ-40, 20 μM
In short: as §1

[3] = system: Aβ-42; experiment: MSD Human (6E10) Ab 3-PLEX elisa, conditioned media of 2B7 cells: Aβ-42; conditions: for IC50: Aβ-42 (superscript c); for inhibition at 20 µM: Aβ-42, 20 μM
In short: as §1

[4] = Homo sapiens, read-out: 50% reduction value
[5] = Homo sapiens, read-out: IC50 range

SMILES | IC50 [1, 4] [µM] | IC50 [2, 4] [µM] | IC50 [3, 4] [µM] | IC50 [3, 5] [µM] | IC50 [1, 5] [µM] | also measured
CCO[C@@H](C1C[C@@H](C)[C@H]2C(O1)[C@H](O)[C@@]1(C)C3CC[C@H]4C(C)(C)C(O[C@H]5CN(C6CCOC6)CCO5)CC[C@@]45C[C@@]35CC[C@]21C)C(C)(C)O (some centres unmarked) | < 1 | 1 to 10 | < 1 | < 1 | – | –
CC(=O)OC[C@@]1(C)C[C@@H](C)[C@H]2C(O1)[C@H](O)[C@@]1(C)C3CC[C@H]4C(C)(C)C(O)CC[C@@]45C[C@@]35CC[C@]21C (some centres unmarked) | 1 to 10 | 1 to 10 | > 10 | – | – | –
C[C@@H]1CC(COC(N)=O)OC2[C@H]1[C@@]1(C)CC[C@@]34C[C@@]35CC[C@H](O[C@H]3CN(C(=O)CC6CC6)CCO3)C(C)(C)[C@@H]5CCC4[C@]1(C)[C@H]2O (some centres unmarked) | – | – | – | 1 to 10 | < 1 | IC50 [2, 5]: > 10 µM
CC(C)CO[C@@H](C1C[C@@H](C)[C@H]2C(O1)[C@H](O)[C@@]1(C)C3CC[C@H]4C(C)(C)C(OC(=O)NC5CNC5)CC[C@@]45C[C@@]35CC[C@]21C)C(C)(C)O (some centres unmarked) | 1 to 10 | 1 to 10 | < 1 | < 1 | – | –
COC(=O)NCC1C[C@@H](C)[C@H]2C(O1)[C@H](O)[C@@]1(C)C3CC[C@H]4C(C)(C)[C@@H](O)CC[C@@]45C[C@@]35CC[C@]21C (some centres unmarked) | > 10 | – | – | – | – | inhibition at 20 µM ([2]; Homo sapiens): 25 to 75%; inhibition at 20 µM ([3]; Homo sapiens): 25 to 75%
CC(C)[C@@H](OC(=O)C1CCOCC1)C1C[C@@H](C)[C@H]2C(O1)[C@H](O)[C@@]1(C)[C@@H]3CC[C@H]4C(C)(C)C(O)CC[C@@]45C[C@@]35CC[C@]21C (some centres unmarked) | – | – | – | 1 to 10 | > 10 | IC50 [2, 5]: 1 to 10 µM
CC(=O)N(Cc1cc(F)cc(F)c1)CC1CC(C)C2C(O1)C(O)C1(C)C3CCC4C(C)(C)C(OC(=O)C5CNC5)CCC45CC35CCC21C (centres unmarked) [drawing 1215] | – | – | – | – | – | IC50 ([1]; read-out: 50% reduction value): 1 to 10 µM; IC50 ([1]; read-out: IC50 range): 1 to 10 µM; IC50 ([2]; read-out: 50% reduction value): 1 to 10 µM; IC50 ([2]; read-out: IC50 range): 1 to 10 µM; IC50 ([3]; read-out: 50% reduction value): 1 to 10 µM; IC50 ([3]; read-out: IC50 range): 1 to 10 µM
C[C@@H]1CC(C(=O)O)OC2C1[C@@]1(C)CC[C@@]34C[C@@]35CC[C@H](OC3CN(C6COC6)CCO3)C(C)(C)[C@@H]5CC[C@H]4[C@]1(C)[C@H]2O (some centres unmarked) | – | – | – | – | – | inhibition at 20 µM ([1]; Homo sapiens, Aβ-38, 20 μM): < 25%; inhibition at 20 µM ([2]; Homo sapiens): < 25%; inhibition at 20 µM ([3]; Homo sapiens): < 25%
CO[C@@H](C1C[C@@H](C)[C@H]2C(O1)[C@H](O)[C@@]1(C)C3CC[C@H]4C(C)(C)[C@@H](O)CC[C@@]45C[C@@]35CC[C@]21C)C(C)(C)O (some centres unmarked) | < 1 | – | < 1 | – | – | inhibition at 20 µM ([2]; Homo sapiens): 25 to 75%
C=C(C)CO[C@@H](C1C[C@@H](C)[C@H]2C(O1)[C@H](O)[C@@]1(C)C3CC[C@H]4C(C)(C)C(OC(=O)NC5CNC5)CC[C@@]45C[C@@]35CC[C@]21C)C(C)(C)O (some centres unmarked) | < 1 | 1 to 10 | < 1 | < 1 | – | IC50 [2, 5]: > 10 µM
CC(C)CC(=O)O[C@@H](C1C[C@@H](C)[C@H]2C(O1)[C@H](O)[C@@]1(C)[C@@H]3CC[C@H]4C(C)(C)C(O)CC[C@@]45C[C@@]35CC[C@]21C)C(C)(C)O (some centres unmarked) | < 1 | 1 to 10 | < 1 | – | < 1 | –
C[C@@H]1CC(C(O)C(C)(C)C)OC2[C@H]1[C@@]1(C)CC[C@@]34C[C@@]35CC[C@H](O[C@H]3CN(C6COC6)CCO3)C(C)(C)[C@@H]5CCC4[C@]1(C)[C@H]2O (some centres unmarked) | < 1 | < 1 | 1 to 10 | < 1 | < 1 | IC50 [2, 5]: < 1 µM
CC1CC(C(OC(=O)C2CCC2)C(C)(C)O)OC2C1C1(C)CCC34CC35CCC(OC3CN(C6COC6)CCO3)C(C)(C)C5CCC4C1(C)C2O (centres unmarked) [drawing 1219] | – | – | – | – | – | IC50 ([1]; read-out: 50% reduction value): < 1 µM; IC50 ([1]; read-out: IC50 range): < 1 µM; IC50 ([2]; read-out: 50% reduction value): < 1 µM; IC50 ([3]; read-out: 50% reduction value): < 1 µM
CCO[C@H](C(C)C)C1C[C@@H](C)[C@H]2C(O1)[C@H](O)[C@@]1(C)[C@@H]3CC[C@H]4C(C)(C)C(O)CC[C@@]45C[C@@]35CC[C@]21C (some centres unmarked) | 1 to 10 | 1 to 10 | 1 to 10 | – | – | –
CC(=O)O[C@H](C(C)C)C1C[C@@H](C)[C@H]2C(O1)[C@H](O)[C@@]1(C)C3CC[C@H]4C(C)(C)[C@@H](O[C@H]5CN(C(=O)C(C)C)CCO5)CC[C@@]45C[C@@]35CC[C@]21C (some centres unmarked) | < 1 | < 1 | < 1 | < 1 | < 1 | –
